One compound from ChEMBL document CHEMBL1131242, “6beta-Acetoxynortropane: a potent muscarinic agonist with apparent selectivity toward M2-receptors” (J Med Chem, 1998) can be followed below.

Experiment [1] addresses Muscarinic acetylcholine receptor M4 (Homo sapiens) (UniProt P08173). Description: Inhibition of binding of [3H]quinuclidinyl benzilate to Muscarinic acetylcholine receptor M4 in membranes of transfected CHO cells.
Experiment [2] shares this target. The experiment is described as follows: Inhibitory activity against [3H]-cyclic AMP accumulation in CHO transfected cells mediated by Muscarinic acetylcholine receptor M4.
The target in experiment [3] is T1, Muscarinic acetylcholine receptor M3 (Homo sapiens, UniProt P20309). The experiment is described as follows: Percentage inhibition of binding of [3H]quinuclidinyl benzilate to muscarinic receptors in membranes of CHO cells transfected with Muscarinic acetylcholine receptor M3.
Experiment [4] has as its target T1, Muscarinic acetylcholine receptor M3. The experiment is described as follows: Inhibition of binding of [3H]quinuclidinyl benzilate to human Muscarinic acetylcholine receptor M3 in membranes of transfected CHO cells at 100 uM concentration. The following applies: Membrane.
Experiment [5] has the same target. The experiment is described as follows: Inhibitory activity against stimulation of [3H]inositol monophosphate accumulation in [3H]inositol-labelled CHO transfected cells mediated by Muscarinic acetylcholine receptor M3.
Experiment [6] concerns the target T2, Muscarinic acetylcholine receptor M4 (Homo sapiens) (UniProt P08173).
T2 sequence (whole entry): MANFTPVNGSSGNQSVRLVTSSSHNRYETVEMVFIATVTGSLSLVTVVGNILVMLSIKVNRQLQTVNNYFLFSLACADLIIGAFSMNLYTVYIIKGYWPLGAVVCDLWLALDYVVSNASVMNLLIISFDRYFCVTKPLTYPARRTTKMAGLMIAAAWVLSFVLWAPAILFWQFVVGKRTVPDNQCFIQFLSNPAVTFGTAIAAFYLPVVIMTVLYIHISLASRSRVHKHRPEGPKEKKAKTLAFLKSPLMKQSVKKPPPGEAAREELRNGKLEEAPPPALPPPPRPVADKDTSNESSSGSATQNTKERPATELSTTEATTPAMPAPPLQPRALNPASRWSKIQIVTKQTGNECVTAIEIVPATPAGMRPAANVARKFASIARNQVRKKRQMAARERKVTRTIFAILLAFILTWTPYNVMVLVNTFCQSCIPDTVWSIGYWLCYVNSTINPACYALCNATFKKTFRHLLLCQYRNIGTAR
The experiment is described as follows: Inhibition of binding of [3H]quinuclidinyl benzilate to muscarinic receptors in membranes of CHO cells transfected with Muscarinic acetylcholine receptor M4.

A word on the Ki: it is a dissociation constant, usually derived from enzyme kinetics or from competition with a known ligand. Low readings indicate a stronger hold on the target, high ones a looser hold on the target. The IC50 is the concentration needed to halve the response being measured. Low readings indicate greater potency in that assay, high ones weaker potency in that assay. A word on the inhibition: it is how much of the control response was suppressed. A high value points to a strong effect. As a reminder, the EC50 is the concentration that produces a half-maximal response. The low end stands for higher potency in that assay, the high end for lower potency in that assay.

T1 sequence (P20309 whole entry, looked up): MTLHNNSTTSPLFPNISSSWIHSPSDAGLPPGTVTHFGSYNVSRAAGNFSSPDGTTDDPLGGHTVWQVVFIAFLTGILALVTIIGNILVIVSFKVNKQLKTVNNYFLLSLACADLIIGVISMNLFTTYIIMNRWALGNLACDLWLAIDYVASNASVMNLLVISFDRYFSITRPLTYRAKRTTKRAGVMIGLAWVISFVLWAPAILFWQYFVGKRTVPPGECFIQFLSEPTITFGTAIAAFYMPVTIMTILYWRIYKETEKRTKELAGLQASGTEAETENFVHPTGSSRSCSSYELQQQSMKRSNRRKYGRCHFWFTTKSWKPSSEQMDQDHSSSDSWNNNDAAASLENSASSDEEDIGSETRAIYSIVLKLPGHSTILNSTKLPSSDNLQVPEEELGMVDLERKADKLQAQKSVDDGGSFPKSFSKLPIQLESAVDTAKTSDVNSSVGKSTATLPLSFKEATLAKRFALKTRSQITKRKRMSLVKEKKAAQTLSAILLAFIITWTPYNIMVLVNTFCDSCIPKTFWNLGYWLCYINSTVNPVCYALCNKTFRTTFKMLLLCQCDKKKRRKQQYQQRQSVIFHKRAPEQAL

For `C[C@@H]1O[C@H](C[N+](C)(C)C)C[C@H]1O` [MUSCARINE], the Ki in experiment [1] and in experiment [6] was 1.4 µM throughout. Besides, in experiment [2], the IC50 stood at 0.47 µM. Moreover, the inhibition in experiment [3] and in experiment [4] was 28% in each case. Besides, the midpoint of the response in experiment [5], the EC50, lay at 0.13 µM.
